IC50 data for 27 compounds are collected here from patent US8637496B2, “Compounds having a monogalactosyldiacylglycerol synthase inhibitory activity as herbicide or algaecide, herbicide and algaecide compositions” (Commissariat a l'Energie Atomique, priority 2007, dated 2014).

Where a name gives a salt, the structure may show the parent alone. Read-outs that look alike come from different tables or passages of the source.

In the experiment the target is T1, MGDG synthase in isolated spinach chloroplast envelope membranes (Spinacia oleracea, UniProt Q9SM44).
T1 construct: envelope membranes purified from the lysate by sucrose centrifugation gradient; from tissue; host or cells: envelope membranes of chloroplasts from spinach leaves
T1 sequence (Q9SM44 99-522): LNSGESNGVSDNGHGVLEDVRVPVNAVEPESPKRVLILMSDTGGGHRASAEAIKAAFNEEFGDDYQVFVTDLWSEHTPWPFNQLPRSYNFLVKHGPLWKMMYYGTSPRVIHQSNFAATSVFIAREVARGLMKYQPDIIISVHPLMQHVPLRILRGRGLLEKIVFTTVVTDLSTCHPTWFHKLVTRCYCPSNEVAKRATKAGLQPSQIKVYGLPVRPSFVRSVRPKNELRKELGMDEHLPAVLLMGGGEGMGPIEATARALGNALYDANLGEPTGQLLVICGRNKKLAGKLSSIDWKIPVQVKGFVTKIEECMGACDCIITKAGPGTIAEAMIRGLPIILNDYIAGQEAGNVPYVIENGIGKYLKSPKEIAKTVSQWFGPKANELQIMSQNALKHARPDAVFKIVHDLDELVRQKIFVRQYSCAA
In words: MGDG synthase activity in envelope membrane fractions isolated from spinach chloroplasts. The experiment is classed as biochemical. From the text: All the operations have been carried out as described in the article by Maréchal, E. et al., J. Biol. Chem., 1995, 270, 5714-5722. Crude chloroplasts were obtained from 3-4 kg of spinach leaves and purified by isopycnic centrifugation using Percoll gradients. Purified intact chloroplasts have then been lysed in hypotonic medium and envelope membranes purified from the lysate by sucrose centrifugation gradient as described in the article by Douce, R. and Joyard, J., (1982) in Methods in Chloroplast Molecular Biology (Edelman, M., Hallick R and Chua N H eds), pp 239-256, Elsevier Science Publishers B.V. Amsterdam.
MGDG synthase activity was assayed as described in the article by Maréchal et al. (1995).

Where [1] appears, read: Table 1, obtained in the same manner as FIG. 4, read-out: Inhibitory effect on MGDG synthesis in isolated spinach chloroplast envelope membranes.

With `O=C(OCCCN(Cc1ccccc1)Cc1cccc(Oc2ccccc2)c1)N1CCC(n2c(=O)[nH]c3ccccc32)CC1` [Compound 73, 3-(benzyl(3-phenoxybenzyl)amino)propyl 4-(2-oxo-2,3-dihydro-1H-benzo[d]imidazol-1-yl)piperidine-1-carboxylate hydrochloride], the IC50 under setting [1] was found to be 15 µM.

For `CC(C)C[C@@H](COC(=O)N1CCC(n2c(=O)[nH]c3ccccc32)CC1)NCc1ccccc1` [Compound 87, (S)-2-(benzylamino)-4-methylpentyl 4-(2-oxo-2,3-dihydro-1H-benzo[d]imidazol-1-yl)piperidine-1-carboxylate], the IC50 under setting [1] amounted to 45 µM.

Turning to `C[C@@H](COC(=O)N1CCC(n2c(=O)[nH]c3ccccc32)CC1)N(Cc1ccccc1)Cc1cccc(OCc2ccccc2)c1` [Compound 60, (S)-2-(benzyl(3-(benzyloxy)benzyl)amino)propyl 4-(2-oxo-2,3-dihydro-1H-benzo[d]imidazol-1-yl)piperidine-1-carboxylate hydrochloride], the IC50 under setting [1] turned out to be 12 µM.

For the compound `CC(C)(COC(=O)N1CCC(n2c(=O)[nH]c3ccccc32)CC1)N(Cc1ccccc1)Cc1ccccc1` [Compound 33, 2-(dibenzylamino)-2-methylpropyl 4-(1,2-dihydro-2-oxobenzo[d]imidazol-3-yl)piperidine-1-carboxylate], the IC50 under setting [1] came out at 50 µM.

In the case of `O=C(OCCCN(Cc1ccccc1)Cc1ccc(Cl)cc1)N1CCC(n2c(=O)[nH]c3ccccc32)CC1` [Compound 83, 3-(benzyl(4-chlorobenzyl)amino)propyl 4-(2-oxo-2,3-dihydro-1H-benzo[d]imidazol-1-yl)piperidine-1-carboxylate], under setting [1], the IC50 was determined as 12 µM.

Turning to `CC(COC(=O)N1CCC(n2c(=O)[nH]c3ccccc32)CC1)N(CCCOCc1ccccc1)Cc1ccccc1` (stereo not drawn) [Compound 89, 2-(benzyl(3-(benzyloxy)propyl)amino)propyl 4-(2-oxo-2,3-dihydro-1H-benzo[d]imidazol-1-yl)piperidine-1-carboxylate], the IC50 under setting [1] was 40 µM.

With `C[C@@H](COC(=O)N1CCC(n2c(=O)[nH]c3ccccc32)CC1)N(Cc1ccccc1)Cc1ccc(F)cc1` [Compound 51, (S)-2-(benzyl(4-fluorobenzyl)amino)propyl 4-(2-oxo-2,3-dihydro-1H-benzo[d]imidazol-1-yl)piperidine-1-carboxylate hydrochloride], the IC50 under setting [1] came to 40 µM.

As for `C[C@@H](COC(=O)N1CCC(n2c(=S)[nH]c3ccccc32)CC1)N(Cc1ccccc1)Cc1ccccc1` [Compound 25, (S)-2-(dibenzylamino)propyl 4-(1,2-dihydro-2-thioxobenzo[d]imidazol-3-yl)piperidine-1-carboxylate], the IC50 under setting [1] is 100 to 500 µM.

Take `C[C@@H](COC(=O)N1CCC(n2c(=O)[nH]c3ccccc32)CC1)N(Cc1ccccc1)Cc1cccc(Cl)c1` [Compound 56, (S)-2-(benzyl(3-chlorobenzyl)amino)propyl 4-(2-oxo-2,3-dihydro-1H-benzo[d]imidazol-1-yl)piperidine-1-carboxylate hydrochloride]: the IC50 under setting [1] amounted to 15 µM.

Take `O=C(OCCCN(Cc1ccccc1)Cc1cccc2ccccc12)N1CCC(n2c(=O)[nH]c3ccccc32)CC1` [Compound 70, 3-(benzyl(naphthalen-1-ylmethyl)amino)propyl 4-(2-oxo-2,3-dihydro-1H-benzo[d]imidazol-1-yl)piperidine-1-carboxylate hydrochloride]: the IC50 under setting [1] amounted to 60 µM.

As for `O=c1[nH]c2ccccc2n1C1CCN(C(=S)OCCN(Cc2ccccc2)Cc2ccccc2)CC1` [Compound 19, O-2-(dibenzylamino)ethyl 4-(1,2-dihydro-2-oxobenzo[d]imidazol-3-yl)piperidine-1-carbothioate], the IC50 under setting [1] was 20 µM.

For the compound `O=C(OCCN(Cc1ccccc1)Cc1ccc(F)cc1)N1CCC(n2c(=O)[nH]c3ccccc32)CC1` [Compound 45, 2-(benzyl(4-fluorobenzyl)amino)ethyl 4-(2-oxo-2,3-dihydro-1H-benzo[d]imidazol-1-yl)piperidine-1-carboxylate hydrochloride], the IC50 under setting [1] is 5 µM.

Turning to `C[C@@H](CNC(=S)N1CCC(n2c(=O)[nH]c3ccccc32)CC1)N(Cc1ccccc1)Cc1ccccc1` [Compound 23, N—((S)-2-(dibenzylamino)propyl)-4-(1,2-dihydro-2-oxobenzo[d]imidazol-3-yl)piperidine-1-carbothioamide], under setting [1], the IC50 turned out to be 50 µM.

Regarding `CC(C)(C)C(COC(=O)N1CCC(n2c(=O)[nH]c3ccccc32)CC1)N(Cc1ccccc1)Cc1ccccc1` (stereo not drawn) [Compound 31, 2-(dibenzylamino)-3,3-dimethylbutyl 4-(1,2-dihydro-2-oxobenzo[d]imidazol-3-yl)piperidine-1-carboxylate], the IC50 under setting [1] was 50 µM.

On to `C[C@@H](COC(=O)N1CCC(n2cnc3ccccc32)CC1)N(Cc1ccccc1)Cc1ccccc1` [Compound 1, (S)-2-(dibenzylamino)propyl 4-(1H-benzo[d]imidazol-1-yl)piperidine-1-carboxylate], for which the IC50 under setting [1] was in the range of 100 to 500 µM.

Take `C[C@@H](COC(=O)N1CCC(n2c(=O)[nH]c3ccccc32)CC1)N(Cc1ccccc1)Cc1cc2ccccc2c2ccccc12` [Compound 61, (S)-2-(benzyl(phenanthren-9-ylmethyl)amino)propyl 4-(2-oxo-2,3-dihydro-1H-benzo[d]imidazol-1-yl)piperidine-1-carboxylate hydrochloride]: the IC50 is 25 µM.

Take `O=C(OCCN(Cc1ccccc1)Cc1ccc([N+](=O)[O-])cc1)N1CCC(n2c(=O)[nH]c3ccccc32)CC1` [Compound 28, 2-(N-(4-nitrobenzyl)-N-benzylamino)ethyl 4-(1,2-dihydro-2-oxobenzo[d]imidazol-3-yl)piperidine-1-carboxylate]: under setting [1], the IC50 worked out at 20 µM.

As to `O=C(OCCN(Cc1ccccc1)Cc1ccc(OCc2ccccc2)cc1)N1CCC(n2c(=O)[nH]c3ccccc32)CC1` [Compound 77, 2-(benzyl(4-(benzyloxy)benzyl)amino)ethyl 4-(2-oxo-2,3-dihydro-1H-benzo[d]imidazol-1-yl)piperidine-1-carboxylate], the IC50 under setting [1] turned out to be 30 µM.

Take `CCN(CCOC(=O)N1CCC(n2c(=O)[nH]c3ccccc32)CC1)c1ccccc1` [Compound 17, 2-(ethyl(phenyl)amino)ethyl 4-(2-oxo-2,3-dihydro-1H-benzo[d]imidazol-1-yl)piperidine-1-carboxylate]: the IC50 under setting [1] was determined as 200 µM.

Take `Cn1c(=O)n(C2CCN(C(=O)OC[C@H](Cc3ccccc3)N(Cc3ccccc3)Cc3ccccc3)CC2)c2ccccc21` [Compound 22, (S)-2-(dibenzylamino)-3-phenylpropyl 4-(1,2-dihydro-1-methyl-2-oxobenzo[d]imidazol-3-yl)piperidine-1-carboxylate]: under setting [1], the IC50 is 75 µM.

For the compound `O=C(OCCN(C/C=C/c1ccccc1)Cc1ccccc1)N1CCC(n2c(=O)[nH]c3ccccc32)CC1` [Compound 82, (E)-2-(benzyl(cinnamyl)amino)ethyl 4-(2-oxo-2,3-dihydro-1H-benzo[d]imidazol-1-yl)piperidine-1-carboxylate], under setting [1], the IC50 amounted to 50 µM.

Consider `C[C@@H](COC(=O)N1CCC(n2c(=O)[nH]c3ccccc32)CC1)N(Cc1ccccc1)Cc1cccs1` [Compound 63, (S)-2-(benzyl(thiophen-2-ylmethyl)amino)propyl 4-(2-oxo-2,3-dihydro-1H-benzo[d]imidazol-1-yl)piperidine-1-carboxylate hydrochloride], for which the IC50 under setting [1] was 30 µM.

`Cn1c(CN(CCCOC(=O)N2CCC(n3c(=O)[nH]c4ccccc43)CC2)Cc2ccccc2)cc2ccccc21` [Compound 72, 3-(benzyl((1-methyl-1H-indol-2-yl)methyl)amino)propyl 4-(2-oxo-2,3-dihydro-1H-benzo[d]imidazol-1-yl)piperidine-1-carboxylate hydrochloride]: the IC50 under setting [1] is 50 µM.

Regarding `O=C(OCCCN(Cc1ccccc1)Cc1ccc([N+](=O)[O-])cc1)N1CCC(n2c(=O)[nH]c3ccccc32)CC1` [Compound 38, 3-(benzyl(4-nitrobenzyl)amino)propyl 4-(2-oxo-2,3-dihydro-1H-benzo[d]imidazol-1-yl)piperidine-1-carboxylate hydrochloride], the IC50 under setting [1] was 15 µM.

`COc1ccc(CN(Cc2ccccc2)[C@@H](C)COC(=O)N2CCC(n3c(=O)[nH]c4ccccc43)CC2)cc1` [Compound 39, (S)-2-(benzyl(4-methoxybenzyl)amino)propyl 4-(2-oxo-2,3-dihydro-1H-benzo[d]imidazol-1-yl)piperidine-1-carboxylate hydrochloride]: under setting [1], the IC50 was 60 µM.

As for `O=C(OCCN(Cc1ccccc1)c1ccccc1)N1CCC(n2c(=O)[nH]c3ccccc32)CC1` [Compound 35, 2-(N-benzyl-N-phenylamino)ethyl 4-(1,2-dihydro-2-oxobenzo[d]imidazol-3-yl)piperidine-1-carboxylate], under setting [1], the IC50 turned out to be 40 µM.

Turning to `O=C(OC[C@H](c1ccccc1)N(Cc1ccccc1)Cc1ccccc1)N1CCC(n2c(=O)[nH]c3ccccc32)CC1` [Compound 34, (S)-2-(dibenzylamino)-2-phenylethyl 4-(1,2-dihydro-2-oxobenzo[d]imidazol-3-yl)piperidine-1-carboxylate], the IC50 under setting [1] is 40 µM.
